Columns and labels:
Type in all cases: functional
[1] = system: A549; test: Growth inhibition of human A549/ATCC cells assessed as cell growth at 10^-4 M by sulforhodamine B assay; conditions: read-out: Activity
[2] = system: MDA-MB-435; test: Growth inhibition of human MDA-MB-435 cells assessed as cell growth at 10^-7 M by sulforhodamine B assay; conditions: read-out: Activity
[3] = system: SNB-75; test: Growth inhibition of human SNB75 cells assessed as cell growth at 10^-8 M by sulforhodamine B assay; conditions: read-out: Activity
[4] = system: OVCAR-4; test: Growth inhibition of human OVCAR4 cells by sulforhodamine B assay
[5] = system: TK-10; test: Growth inhibition of human TK10 cells assessed as cell growth at 10^-6 M by sulforhodamine B assay; conditions: read-out: Activity
[6] = system: OVCAR-4; test: Growth inhibition of human OVCAR4 cells assessed as cell growth at 10^-4 M by sulforhodamine B assay; conditions: read-out: Activity
[7] = system: OVCAR-8; test: Growth inhibition of human OVCAR8 cells assessed as cell growth at 10^-8 M by sulforhodamine B assay; conditions: read-out: Activity
[8] = system: SF-295; test: Growth inhibition of human SF295 cells assessed as cell growth at 10^-7 M by sulforhodamine B assay; conditions: read-out: Activity
[9] = system: MDA-MB-468; test: Growth inhibition of human MDA-MB-468 cells assessed as cell growth at 10^-6 M by sulforhodamine B assay; conditions: read-out: Activity
[10] = system: NCI-H23; test: Growth inhibition of human NCI-H23 cells by sulforhodamine B assay
[11] = system: SR; test: Growth inhibition of human SR cells assessed as cell growth at 10^-8 M by sulforhodamine B assay; conditions: read-out: Activity
[12] = system: A498; test: Growth inhibition of human A498 cells assessed as cell growth at 10^-6 M by sulforhodamine B assay; conditions: read-out: Activity
[13] = system: A498; test: Growth inhibition of human A498 cells by sulforhodamine B assay
[14] = system: SF-295; test: Growth inhibition of human SF295 cells assessed as cell growth at 10^-4 M by sulforhodamine B assay; conditions: read-out: Activity
[15] = system: SNB-19; test: Growth inhibition of human SNB19 cells by sulforhodamine B assay
[16] = Growth inhibition of human Hs 578T cells assessed as cell growth at 10^-4 M by sulforhodamine B assay; conditions: read-out: Activity
[17] = system: SK-MEL-5; test: Growth inhibition of human SK-MEL-5 cells assessed as cell growth at 10^-8 M by sulforhodamine B assay; conditions: read-out: Activity
[18] = system: OVCAR-5; test: Growth inhibition of human OVCAR5 cells assessed as cell growth at 10^-8 M by sulforhodamine B assay; conditions: read-out: Activity
[19] = system: DU-145; test: Growth inhibition of human DU145 cells by sulforhodamine B assay
[20] = system: SNB-19; test: Growth inhibition of human SNB19 cells assessed as cell growth at 10^-7 M by sulforhodamine B assay; conditions: read-out: Activity
[21] = system: HOP-62; test: Growth inhibition of human HOP62 cells assessed as cell growth at 10^-6 M by sulforhodamine B assay; conditions: read-out: Activity
[22] = system: PC-3; test: Growth inhibition of human PC3 cells assessed as cell growth at 10^-7 M by sulforhodamine B assay; conditions: read-out: Activity
[23] = system: SF-268; test: Growth inhibition of human SF268 cells by sulforhodamine B assay
[24] = system: CAKI-1; test: Growth inhibition of human CAKI-1 cells assessed as cell growth at 10^-8 M by sulforhodamine B assay; conditions: read-out: Activity
[25] = Growth inhibition of human HCC2998 cells assessed as cell growth at 10^-8 M by sulforhodamine B assay; conditions: HCC 2998, read-out: Activity
[26] = system: BT-549; test: Growth inhibition of human BT549 cells by sulforhodamine B assay
[27] = system: TK-10; test: Growth inhibition of human TK10 cells assessed as cell growth at 10^-8 M by sulforhodamine B assay; conditions: read-out: Activity
[28] = system: MCF7; test: Growth inhibition of human MCF7 cells by sulforhodamine B assay
[29] = system: RPMI-8226; test: Growth inhibition of human RPMI8226 cells assessed as cell growth at 10^-4 M by sulforhodamine B assay; conditions: read-out: Activity
[30] = system: TK-10; test: Growth inhibition of human TK10 cells by sulforhodamine B assay
[31] = system: COLO 205; test: Growth inhibition of human COLO205 cells assessed as cell growth at 10^-8 M by sulforhodamine B assay; conditions: read-out: Activity
[32] = system: SW-620; test: Growth inhibition of human SW620 cells assessed as cell growth at 10^-7 M by sulforhodamine B assay; conditions: read-out: Activity
[33] = system: T47D; test: Growth inhibition of human T47D cells assessed as cell growth at 10^-8 M by sulforhodamine B assay; conditions: read-out: Activity
[34] = system: U-251; test: Growth inhibition of human U251 cells assessed as cell growth at 10^-8 M by sulforhodamine B assay; conditions: read-out: Activity
[35] = system: HOP-62; test: Growth inhibition of human HOP62 cells assessed as cell growth at 10^-7 M by sulforhodamine B assay; conditions: read-out: Activity
[36] = system: SF-268; test: Growth inhibition of human SF268 cells assessed as cell growth at 10^-6 M by sulforhodamine B assay; conditions: read-out: Activity
[37] = system: SF-539; test: Growth inhibition of human SF539 cells assessed as cell growth at 10^-4 M by sulforhodamine B assay; conditions: read-out: Activity
[38] = system: NCI-H226; test: Growth inhibition of human NCI-H226 cells assessed as cell growth at 10^-4 M by sulforhodamine B assay; conditions: read-out: Activity
[39] = system: A498; test: Growth inhibition of human A498 cells assessed as cell growth at 10^-7 M by sulforhodamine B assay; conditions: read-out: Activity
[40] = system: SK-MEL-28; test: Growth inhibition of human SK-MEL-28 cells assessed as cell growth at 10^-7 M by sulforhodamine B assay; conditions: read-out: Activity
[41] = read-out: LC50 (the source's name)
[42] = read-out: pLC50 (the source's name) (converted)

Q: With C/C=C(/C)C(=O)O[C@@H]1CC(C)(C)C[C@H]2C3=CC[C@@H]4[C@@]5(C)CCC(=O)C(C)(C)[C@@H]5CC[C@@]4(C)[C@]3(C)CC[C@@]12C(=O)O [LANTADENE A] as the molecule, how does the growth at 100 µM [1] read?
A: 10%

Q: And the growth at 0.1 µM [2]?
A: 95%

Q: And the growth at 0.01 µM [3]?
A: 86%

Q: What about the GI50 ([4]; read-out: GI50) of the same molecule?
A: 5.64 µM

Q: What about the CC50 [4, 41] of the same molecule?
A: > 100 µM

Q: What about the TGI ([4]; read-out: TGI) of the same molecule?
A: > 100 µM

Q: What about the GI50 ([4]; read-out: pGI50 (converted)) of the same molecule?
A: 5.62 µM

Q: What about the CC50 [4, 42] of the same molecule?
A: > 100 µM

Q: What about the TGI ([4]; read-out: pTGI (converted)) of the same molecule?
A: > 100 µM

Q: And the growth at 1 µM [5]?
A: 101%

Q: And the growth at 100 µM [6]?
A: 29%

Q: And the growth at 0.01 µM [7]?
A: 97%

Q: And the growth at 0.1 µM [8]?
A: 88%

Q: What about the growth at 1 µM [9] of the same molecule?
A: 74%

Q: What about the GI50 ([10]; read-out: GI50) of the same molecule?
A: 4.55 µM

Q: What about the CC50 [10, 41] of the same molecule?
A: > 100 µM

Q: And the TGI ([10]; read-out: TGI)?
A: > 100 µM

Q: And the GI50 ([10]; read-out: pGI50 (converted))?
A: 4.57 µM

Q: And the CC50 [10, 42]?
A: > 100 µM

Q: And the TGI ([10]; read-out: pTGI (converted))?
A: > 100 µM

Q: And the growth at 0.01 µM [11]?
A: 84%

Q: And the growth at 1 µM [12]?
A: 72%

Q: What about the GI50 ([13]; read-out: GI50) of the same molecule?
A: 2060 nM

Q: And the CC50 [13, 41]?
A: > 100 µM

Q: What about the TGI ([13]; read-out: TGI) of the same molecule?
A: 11.6 µM

Q: What about the GI50 ([13]; read-out: pGI50 (converted)) of the same molecule?
A: 2040 nM

Q: What about the CC50 [13, 42] of the same molecule?
A: > 100 µM

Q: What about the TGI ([13]; read-out: pTGI (converted)) of the same molecule?
A: 11.7 µM

Q: And the growth at 100 µM [14]?
A: -6%

Q: What about the GI50 ([15]; read-out: GI50) of the same molecule?
A: 4.67 µM

Q: What about the CC50 [15, 41] of the same molecule?
A: > 100 µM

Q: And the TGI ([15]; read-out: TGI)?
A: > 100 µM

Q: And the GI50 ([15]; read-out: pGI50 (converted))?
A: 4.68 µM

Q: And the CC50 [15, 42]?
A: > 100 µM

Q: And the TGI ([15]; read-out: pTGI (converted))?
A: > 100 µM

Q: What about the growth at 100 µM [16] of the same molecule?
A: 21%

Q: What about the growth at 0.01 µM [17] of the same molecule?
A: 90%

Q: What about the growth at 0.01 µM [18] of the same molecule?
A: 101%

Q: What about the GI50 ([19]; read-out: GI50) of the same molecule?
A: 5.92 µM

Q: What about the CC50 [19, 41] of the same molecule?
A: > 100 µM

Q: What about the TGI ([19]; read-out: TGI) of the same molecule?
A: > 100 µM

Q: What about the GI50 ([19]; read-out: pGI50 (converted)) of the same molecule?
A: 5.89 µM

Q: And the CC50 [19, 42]?
A: > 100 µM

Q: And the TGI ([19]; read-out: pTGI (converted))?
A: > 100 µM

Q: What about the growth at 0.1 µM [20] of the same molecule?
A: 89%

Q: And the growth at 1 µM [21]?
A: 98%

Q: What about the growth at 0.1 µM [22] of the same molecule?
A: 83%

Q: What about the GI50 ([23]; read-out: GI50) of the same molecule?
A: 5.96 µM

Q: What about the LC50 ([23]; read-out: LC50) of the same molecule?
A: > 100 µM

Q: And the TGI ([23]; read-out: TGI)?
A: > 100 µM

Q: What about the GI50 ([23]; read-out: pGI50 (converted)) of the same molecule?
A: 6.03 µM

Q: What about the LC50 ([23]; read-out: pLC50 (converted)) of the same molecule?
A: > 100 µM

Q: And the TGI ([23]; read-out: pTGI (converted))?
A: > 100 µM

Q: What about the growth at 0.01 µM [24] of the same molecule?
A: 96%

Q: And the growth at 0.01 µM [25]?
A: 106%

Q: And the GI50 ([26]; read-out: GI50)?
A: 4.73 µM

Q: What about the CC50 [26, 41] of the same molecule?
A: > 100 µM

Q: And the TGI ([26]; read-out: TGI)?
A: > 100 µM

Q: What about the GI50 ([26]; read-out: pGI50 (converted)) of the same molecule?
A: 4.68 µM

Q: What about the CC50 [26, 42] of the same molecule?
A: > 100 µM

Q: What about the TGI ([26]; read-out: pTGI (converted)) of the same molecule?
A: > 100 µM

Q: What about the growth at 0.01 µM [27] of the same molecule?
A: 99%

Q: What about the GI50 ([28]; read-out: GI50) of the same molecule?
A: 3.6 µM

Q: What about the CC50 [28, 41] of the same molecule?
A: > 100 µM

Q: And the TGI ([28]; read-out: TGI)?
A: > 100 µM

Q: And the GI50 ([28]; read-out: pGI50 (converted))?
A: 3.63 µM

Q: And the CC50 [28, 42]?
A: > 100 µM

Q: What about the TGI ([28]; read-out: pTGI (converted)) of the same molecule?
A: > 100 µM

Q: And the growth at 100 µM [29]?
A: 10%

Q: And the GI50 ([30]; read-out: GI50)?
A: 5.37 µM

Q: And the CC50 [30, 41]?
A: > 100 µM

Q: And the TGI ([30]; read-out: TGI)?
A: > 100 µM

Q: And the GI50 ([30]; read-out: pGI50 (converted))?
A: 5.37 µM

Q: And the CC50 [30, 42]?
A: > 100 µM

Q: What about the TGI ([30]; read-out: pTGI (converted)) of the same molecule?
A: > 100 µM

Q: And the growth at 0.01 µM [31]?
A: 106%

Q: What about the growth at 0.1 µM [32] of the same molecule?
A: 95%

Q: And the growth at 0.01 µM [33]?
A: 99%

Q: What about the growth at 0.01 µM [34] of the same molecule?
A: 98%

Q: And the growth at 0.1 µM [35]?
A: 95%

Q: And the growth at 1 µM [36]?
A: 98%

Q: And the growth at 100 µM [37]?
A: 17%

Q: What about the growth at 100 µM [38] of the same molecule?
A: 20%

Q: What about the growth at 0.1 µM [39] of the same molecule?
A: 86%

Q: What about the growth at 0.1 µM [40] of the same molecule?
A: 95%
